In brackets after ≈: the same amount, converted by molar mass.
What was measured:
A549 [1] = assay: Anticancer activity against human A549 cells assessed as cell growth inhibition incubated for 24 hrs by MTT assay; format: functional, cell-based; settings: A549, 24 h
HCT-116 [2] = assay: Anticancer activity against human HCT-116 cells assessed as cell growth inhibition incubated for 24 hrs by MTT assay; format: functional, cell-based; settings: HCT-116, 24 h
PC-3 [3] = assay: Anticancer activity against human PC-3 cells assessed as cell growth inhibition incubated for 24 hrs by MTT assay; format: functional, cell-based; settings: PC-3, 24 h
MCF7 [4] = assay: Anticancer activity against human MCF7 cells assessed as cell growth inhibition incubated for 24 hrs by MTT assay; format: functional, cell-based; settings: MCF7, 24 h
Cytomegalovirus [5] = assay: Antiviral activity against Cytomegalovirus infected in HFF cells […]; format: functional, organism-based; settings: Human betaherpesvirus 5, HFF
Cytomegalovirus [6] = assay: Potency index, ratio of ganciclovir IC50 to test compound IC50 for antiviral activity against Cytomegalovirus; format: functional
SMMC-7721 = assay: Anticancer activity against human SMMC-7721 cells assessed as cell growth inhibition incubated for 48 hrs by CCK8 assay; format: functional, cell-based; settings: SMMC-7721, 48 h
Rattus norvegicus [7] = assay: Antiinflammatory activity in rat assessed as reduction in xylene induced edema relative to control; format: functional; design: scale not given: the % may be the effect or the level left
[8] = Protection index, ratio of TD50 for neurotoxicity in ip dosed mouse to ED50 for anticonvulsant activity in ip dosed mouse; format: toxicity, organism-based; settings: in vivo, read-out: Ratio TD50/ED50
Mus musculus [9] = assay: Anticonvulsant activity in ip dosed mouse assessed as protection against PTZ-induced seizure; format: functional
Mus musculus [10] = assay: Anticonvulsant activity in ip dosed mouse assessed as MES-induced seizures; format: functional
PC-3 [11] = assay: Anticancer activity against human PC-3 cells assessed as cell growth inhibition incubated for 24 hrs by MTS assay; format: functional, cell-based; settings: PC-3, 24 h
DU-145 [12] = assay: Anticancer activity against human DU-145 cells assessed as cell growth inhibition incubated for 24 hrs by MTS assay; format: functional, cell-based; settings: DU-145, 24 h
LNCaP = assay: Anticancer activity against human LNCaP cells assessed as cell growth inhibition incubated for 24 hrs by MTS assay; format: functional, cell-based
Human alphaherpesvirus 1 [13] = assay: Antiviral activity against Human alphaherpesvirus 1 infected in African green monkey Vero kidney cells assessed as plaque reduction at 80 uM relative to control; format: functional; design: scale not given: the % may be the effect or the level left
MCF7 [14] = assay: Antiproliferative activity against human MCF7 cells assessed as cell viability incubated for 48 hrs by MTT assay; format: functional, cell-based; settings: MCF7, 48 h
[15] = biological target: Hepatocyte growth factor receptor (Homo sapiens, UniProt P08581); assay: Inhibition of c-Met (unknown origin) incubated for 1 hrs in presence of ATP by ELISA assay
[16] = biological target: T1, Vascular endothelial growth factor receptor 2 (Homo sapiens, UniProt P35968); assay: Inhibition of human VEGFR2 (unknown origin) incubated for 1 hrs in presence of ATP by ELISA assay
[17] = Inhibition of Plasmodium falciparum dihydrofolate reductase
Human alphaherpesvirus 1 [18] = assay: Antiviral activity against Human alphaherpesvirus 1 assessed as plaque reduction at […] relative to control; format: functional; design: dose or concentration left out as unconfirmed
Rattus norvegicus [19] = assay: Antiinflammatory activity in rat assessed as reduction in edema at 5 to 20 mg/kg, po measured after 5 hrs relative to control; format: functional; design: scale not given: the % may be the effect or the level left; settings: dose 5-20 mg/kg
HCT-116 [20] = assay: Antiproliferative activity against human HCT-116 cells assessed as cell viability incubated for 48 hrs by MTT assay; settings: HCT-116, 48 h
A549 [21] = assay: Anticancer activity against human A549 cells assessed as cell growth inhibition incubated for 48 hrs by CCK8 assay; format: functional, cell-based; settings: A549, 48 h
Leishmania infantum = assay: Antileishmanial activity against Leishmania infantum measured after 20 mins; format: functional
MDA-MB-231 = assay: Antiproliferative activity against human MDA-MB-231 cells assessed as cell growth inhibition by MTT assay; format: functional, cell-based
A549 [22] = assay: Antiproliferative activity against human A549 cells assessed as cell growth inhibition by MTT assay; format: functional, cell-based
K562 = assay: Antiproliferative activity against human K562 cells assessed as cell growth inhibition by MTT assay; format: functional, cell-based
PC-3 [23] = assay: Anticancer activity against human PC-3 cells assessed as cell growth inhibition; format: functional, cell-based
BT-20 [24] = assay: Anticancer activity against human BT-20 cells assessed as cell growth inhibition incubated for 48 hrs by MTT assay; format: functional, cell-based; settings: BT-20, 48 h
DU-145 [25] = assay: Anticancer activity against human DU-145 cells assessed as cell growth inhibition incubated for 48 hrs by MTT assay; format: functional, cell-based; settings: DU-145, 48 h
A549 [26] = assay: Anticancer activity against human A549 cells assessed as cell growth inhibition incubated for 48 hrs by MTT assay; format: functional, cell-based; settings: A549, 48 h
[27] = Anticancer activity against human SK-MEL-128 cells assessed as cell growth inhibition incubated for 48 hrs by MTT assay; format: functional, cell-based; settings: SK-MEL-128, 48 h
BT-20 [28] = assay: Potency index, ratio of test compound IC50 to cisplatin IC50 for antiproliferative against human BT-20 cells; format: functional
HeLa = assay: Antiproliferative activity against human HeLa cells assessed as cell growth inhibition by MTT assay; format: functional, cell-based
HepG2 = assay: Antiproliferative activity against human HepG2 cells assessed as cell viability incubated for 72 hrs by MTT assay; format: functional, cell-based; settings: HepG2, 72 h
[29] = system: Japanese encephalitis virus; assay: Antiviral activity against Japanese encephalitis virus; format: functional; settings: read-out: ED50 (the source's name)
Cytomegalovirus [30] = assay: Potency index, ratio of test compound IC50 to ganciclovir IC50 for antiviral activity against Cytomegalovirus; format: functional
[31] = Inhibition of Mycobacterium tuberculosis Shikimate dehydrogenase […]; format: functional
[32] = Oral bioavailability in mouse relative to control; format: ADME, organism-based; settings: in vivo
HOP-92 = assay: Anticancer activity against human HOP-92 cells assessed as cell growth inhibition incubated for 48 hrs by SRB assay; format: functional
NCI-H460 = assay: Anticancer activity against human NCI-H460 cells assessed as cell growth inhibition incubated for 48 hrs by SRB assay; format: functional
HCT-116 [33] = assay: Anticancer activity against human HCT-116 cells assessed as cell growth inhibition incubated for 48 hrs by SRB assay; format: functional
U-251 = assay: Anticancer activity against human U-251 cells assessed as cell growth inhibition incubated for 48 hrs by SRB assay; format: functional
LOX IMVI = assay: Anticancer activity against human LOX IMVI cells assessed as cell growth inhibition incubated for 48 hrs by SRB assay; format: functional
A498 = assay: Anticancer activity against human A498 cells assessed as cell growth inhibition incubated for 48 hrs by SRB assay; format: functional
Mus musculus [34] = assay: Anticonvulsant activity in ip dosed mouse assessed as neurotoxicity measured after 15 mins; format: functional; settings: 0.25 h
[35] = Inhibition of Plasmodium falciparum dihydrofolate reductase measured after 48 hrs
[36] = biological target: Bifunctional dihydrofolate reductase-thymidylate synthase (Plasmodium vivax, UniProt O02604); assay: Inhibition of Plasmodium vivax dihydrofolate reductase measured after 48 hrs
Trypanosoma brucei = assay: […] activity against Trypanosoma brucei assessed as […] growth inhibition; format: functional, organism-based
MCF7 [37] = assay: Anticancer activity against human MCF7 cells assessed a cell growth inhibition incubated for 48 hrs by SRB assay; format: functional, cell-based; settings: MCF7, 48 h
[38] = biological target: T1, Vascular endothelial growth factor receptor 2; assay: Inhibition of human VEGFR2 using biotinylated poly-GluTyr as substrate at 117 ng/ml incubated for 24 hrs in presence of ATP by ELISA assay relative to control

T1 sequence (P35968 whole entry): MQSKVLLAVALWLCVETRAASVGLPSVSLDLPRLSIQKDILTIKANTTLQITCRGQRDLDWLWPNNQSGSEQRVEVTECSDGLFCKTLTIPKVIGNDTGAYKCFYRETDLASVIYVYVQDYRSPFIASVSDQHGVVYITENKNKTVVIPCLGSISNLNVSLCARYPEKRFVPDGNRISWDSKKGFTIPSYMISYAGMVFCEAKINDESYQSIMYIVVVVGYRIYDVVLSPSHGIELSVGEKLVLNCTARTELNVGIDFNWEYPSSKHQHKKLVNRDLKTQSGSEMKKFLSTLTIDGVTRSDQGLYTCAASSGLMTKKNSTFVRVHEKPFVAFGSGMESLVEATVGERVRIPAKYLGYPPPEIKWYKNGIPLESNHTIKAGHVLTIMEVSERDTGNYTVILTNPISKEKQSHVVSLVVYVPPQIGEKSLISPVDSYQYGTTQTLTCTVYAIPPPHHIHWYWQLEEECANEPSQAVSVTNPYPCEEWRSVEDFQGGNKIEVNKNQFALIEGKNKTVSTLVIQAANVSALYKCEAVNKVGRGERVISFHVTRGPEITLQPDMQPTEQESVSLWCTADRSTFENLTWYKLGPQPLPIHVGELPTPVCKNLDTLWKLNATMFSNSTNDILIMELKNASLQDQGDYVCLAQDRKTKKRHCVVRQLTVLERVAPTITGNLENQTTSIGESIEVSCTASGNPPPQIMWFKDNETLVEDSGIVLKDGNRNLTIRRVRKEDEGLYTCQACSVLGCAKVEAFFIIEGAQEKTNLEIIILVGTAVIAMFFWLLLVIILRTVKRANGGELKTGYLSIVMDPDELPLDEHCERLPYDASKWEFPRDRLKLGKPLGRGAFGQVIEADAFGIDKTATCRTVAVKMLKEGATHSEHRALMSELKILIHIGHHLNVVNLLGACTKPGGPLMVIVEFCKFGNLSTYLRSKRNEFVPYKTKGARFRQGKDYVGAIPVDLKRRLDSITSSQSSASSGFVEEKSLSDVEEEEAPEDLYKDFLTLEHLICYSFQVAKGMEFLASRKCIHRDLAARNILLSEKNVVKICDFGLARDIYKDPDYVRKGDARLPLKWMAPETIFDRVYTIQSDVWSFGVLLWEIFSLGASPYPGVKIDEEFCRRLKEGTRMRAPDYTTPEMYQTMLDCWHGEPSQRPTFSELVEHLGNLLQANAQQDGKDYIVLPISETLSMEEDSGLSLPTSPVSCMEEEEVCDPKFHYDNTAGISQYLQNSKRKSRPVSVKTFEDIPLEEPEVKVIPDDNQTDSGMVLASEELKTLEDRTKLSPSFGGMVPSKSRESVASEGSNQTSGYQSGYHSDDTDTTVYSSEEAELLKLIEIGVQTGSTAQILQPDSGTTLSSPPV
Chain of Bifunctional dihydrofolate reductase-thymidylate synthase (O02604 whole entry): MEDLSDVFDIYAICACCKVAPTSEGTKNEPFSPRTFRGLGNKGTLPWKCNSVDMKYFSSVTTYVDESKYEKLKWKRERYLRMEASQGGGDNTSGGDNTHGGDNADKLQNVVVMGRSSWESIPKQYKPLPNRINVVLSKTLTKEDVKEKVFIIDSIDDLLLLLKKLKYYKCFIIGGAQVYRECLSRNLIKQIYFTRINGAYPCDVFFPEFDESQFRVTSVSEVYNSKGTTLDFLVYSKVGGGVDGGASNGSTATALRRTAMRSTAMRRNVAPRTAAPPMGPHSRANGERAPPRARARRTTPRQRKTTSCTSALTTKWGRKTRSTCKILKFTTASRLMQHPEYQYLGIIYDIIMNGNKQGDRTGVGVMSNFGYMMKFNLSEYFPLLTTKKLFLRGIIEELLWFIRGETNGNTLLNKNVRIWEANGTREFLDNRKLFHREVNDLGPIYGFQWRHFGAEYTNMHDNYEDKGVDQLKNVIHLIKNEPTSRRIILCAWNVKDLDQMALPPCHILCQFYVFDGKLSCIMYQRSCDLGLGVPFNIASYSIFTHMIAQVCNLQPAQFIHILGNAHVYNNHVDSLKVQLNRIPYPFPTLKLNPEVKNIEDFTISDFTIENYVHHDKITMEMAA
Chain of Hepatocyte growth factor receptor (P08581 whole entry): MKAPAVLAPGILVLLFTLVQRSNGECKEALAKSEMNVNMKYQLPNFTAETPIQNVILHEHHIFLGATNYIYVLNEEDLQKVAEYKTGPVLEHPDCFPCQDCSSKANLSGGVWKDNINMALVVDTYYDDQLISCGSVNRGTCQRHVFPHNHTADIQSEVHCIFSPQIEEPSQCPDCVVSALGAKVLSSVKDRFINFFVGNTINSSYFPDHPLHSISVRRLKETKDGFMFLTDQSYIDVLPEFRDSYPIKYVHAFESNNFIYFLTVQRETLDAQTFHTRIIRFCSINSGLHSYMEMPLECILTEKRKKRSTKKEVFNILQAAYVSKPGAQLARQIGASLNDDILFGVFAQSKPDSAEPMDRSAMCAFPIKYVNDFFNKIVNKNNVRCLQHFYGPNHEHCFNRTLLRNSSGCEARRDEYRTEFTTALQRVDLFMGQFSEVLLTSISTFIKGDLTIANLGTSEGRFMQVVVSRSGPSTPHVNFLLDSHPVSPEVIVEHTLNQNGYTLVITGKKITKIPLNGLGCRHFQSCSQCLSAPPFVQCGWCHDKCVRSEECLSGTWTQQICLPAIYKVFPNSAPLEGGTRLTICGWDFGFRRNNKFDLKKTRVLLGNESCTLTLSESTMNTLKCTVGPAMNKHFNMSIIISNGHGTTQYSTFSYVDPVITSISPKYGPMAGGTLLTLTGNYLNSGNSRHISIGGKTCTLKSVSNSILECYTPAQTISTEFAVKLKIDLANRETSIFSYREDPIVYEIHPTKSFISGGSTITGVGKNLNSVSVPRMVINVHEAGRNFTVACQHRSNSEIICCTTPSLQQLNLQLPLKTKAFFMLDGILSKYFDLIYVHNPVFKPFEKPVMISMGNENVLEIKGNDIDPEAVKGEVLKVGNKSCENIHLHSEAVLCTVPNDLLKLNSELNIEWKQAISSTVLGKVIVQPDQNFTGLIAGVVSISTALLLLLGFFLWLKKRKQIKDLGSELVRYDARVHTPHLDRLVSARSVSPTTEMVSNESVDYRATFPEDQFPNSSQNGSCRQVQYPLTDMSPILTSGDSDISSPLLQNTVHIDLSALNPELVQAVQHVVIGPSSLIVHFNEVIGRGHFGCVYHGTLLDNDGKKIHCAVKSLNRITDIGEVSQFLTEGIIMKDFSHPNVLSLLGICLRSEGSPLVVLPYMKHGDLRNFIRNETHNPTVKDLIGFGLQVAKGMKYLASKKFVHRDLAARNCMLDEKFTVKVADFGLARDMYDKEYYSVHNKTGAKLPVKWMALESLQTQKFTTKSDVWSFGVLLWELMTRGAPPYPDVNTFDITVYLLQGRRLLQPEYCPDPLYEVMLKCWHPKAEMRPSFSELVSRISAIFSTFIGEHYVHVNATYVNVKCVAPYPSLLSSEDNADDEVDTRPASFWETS

For `CC1CNCC(C)N1c1ccc(Nc2nccc(N3CCn4c(nnc4-c4ccc(F)c(Cl)c4)C3)n2)cc1` (stereo not drawn), the IC50 (A549 [1]) was 2.14 µM, the IC50 (HCT-116 [2]) was 3.59 µM and the IC50 (PC-3 [3]) was 5.52 µM. It also gave an IC50 (MCF7 [4]) of 3.69 µM.
For `Nc1nc2c(ncn2COC(CO)CO)c(=O)[nH]1` [GANCICLOVIR], the IC50 (Cytomegalovirus [5]) was 0.59 µM and the “Ratio IC50” value (Cytomegalovirus [6]) was over 256.
In the case of `CC(C)SSc1nnc(-c2ccccc2)n1N`, the IC50 (SMMC-7721) is reported as 2.97 µM.
For `O=c1c2sccc2n2cnnc2n1-c1ccc(Cl)cc1`, the Activity (Rattus norvegicus [7]) was 50.48%.
For `Fc1ccc(-c2csc3nncn23)cc1`, the selectivity ratio [8] was 1.7, the ED50 (Mus musculus [9]) was 49.1 mg/kg and the ED50 (Mus musculus [10]) was 49.1 mg/kg.
In the case of `COc1ccc2cc(C(C)c3nnc(SCC(=O)N/N=C/c4cc([N+](=O)[O-])ccc4-c4ccco4)n3-c3ccc(F)cc3)ccc2c1` (stereo not drawn), the IC50 (PC-3 [11]) is reported as 26 µM, the IC50 (DU-145 [12]) is reported as 34.5 µM and the IC50 (LNCaP) is reported as 48.8 µM.
In the case of `CCOC(=O)CSc1nc2n(n1)C(=O)C(CCCl)C(C)N2` (stereo not drawn), the Activity (Human alphaherpesvirus 1 [13]) is reported as 50%.
`O=C(O)c1ccc(-n2nc(Oc3ccccc3)nc2NC(=S)NC(=O)c2ccccc2)cc1` gave an IC50 (MCF7 [14]) of 23.9 µM.
`Cc1c(C(=O)Nc2ccc(Oc3ccnc(-c4nncn4CN4CCN(C)CC4)c3)c(F)c2)c(=O)n(-c2ccccc2)n1C` showed an IC50 [15] of 0.11 µM and an IC50 [16] of 0.19 µM.
For `CC1=C(C(=O)Nc2ccc(Br)cn2)C(c2cn(-c3ccccc3)nc2-c2ccc(Cl)cc2)n2ncnc2N1` (stereo not drawn), the IC50 [17] was 0.023 µg/mL (≈ 0.0391 µM).
In the case of `Cc1ccc2nc(Cl)c3nnc(NC(=S)Nc4ccccc4)n3c2c1`, the Activity (Human alphaherpesvirus 1 [18]) is reported as 25%.
`O=C(CSc1nncn1CC(=O)N/N=C/c1ccc(O)cc1)N/N=C/c1ccc(O)cc1` gave an Activity (Rattus norvegicus [19]) of 64.44%.
Work on `CSc1nc(NC(=S)NCc2ccccc2)n(-c2ccc(C(=O)O)cc2)n1` yielded an IC50 (HCT-116 [20]) of 15.6 µM.
`CCCCSSc1nnc(-c2ccccc2)n1N` showed an IC50 (A549 [21]) of 2.79 µM.
For `Nn1c(S)nnc1Cn1nc(Cc2cccs2)n(N)c1=O`, the MIC (Leishmania infantum) was 625 µg/mL (≈ 1930 µM).
`Cc1nn(-c2ccc(Br)cc2)c(=O)n1-n1c(-c2cc3ccccc3oc2=O)cs/c1=N\c1ccc(Cl)cc1` showed an IC50 (MDA-MB-231) of 0.16 µg/mL (≈ 0.264 µM), an IC50 (A549 [22]) of 0.16 µg/mL (≈ 0.264 µM) and an IC50 (K562) of 0.16 µg/mL (≈ 0.264 µM).
Work on `O=C(CSc1nnc2n(Cc3ccccc3)c(=O)c3c4c(sc3n12)CCCC4)N1CCN(c2ccccc2)CC1` yielded an IC50 (PC-3 [23]) of 5.48 µM.
For `CCN(CC)c1ccc2cc(C(=O)NNC(=O)Cn3nc(Cc4cccc(Br)c4)n(N)c3=O)c(=O)oc2c1`, the IC50 (BT-20 [24]) was 3.1 µg/mL (≈ 5.3 µM), the IC50 (DU-145 [25]) was 3.1 µg/mL (≈ 5.3 µM) and the IC50 (A549 [26]) was 3.1 µg/mL (≈ 5.3 µM). The IC50 [27] was 3.1 µg/mL (≈ 5.3 µM), the “Ratio IC50” value (BT-20 [28]) was 2.7 and the IC50 (HeLa) was 0.16 µg/mL (≈ 0.274 µM).
`CCc1nnc2c(Nc3ccc(C(=O)/C=C/c4cc(OC)c(OC)c(OC)c4)cc3)nc3ccccc3n12` gave an IC50 (HepG2) of 8.58 µM.
Compound `CN1C(=O)c2ccccc2N(c2cccc(-c3nnc4n3NC(c3ccccc3)=C(c3ccccc3)S4)c2)C1c1ccccc1` (stereo not drawn) has an EC50 [29] of 7.8 µg/mL (≈ 12.9 µM).
With `Cc1cc2nc(Cc3nncn3-c3ccccn3)c(=O)[nH]c2cc1C` the IC50 (Cytomegalovirus [5]) was under 0.05 µM and the “Ratio IC50” value (Cytomegalovirus [30]) was over 3000.
With `COc1ccc(OCc2nn3c(-c4ccc(Br)cc4)nnc3s2)cc1` the “log(activity)” value [31] was 1.7 and the bioavailability [32] was 14%.
With `Clc1ccccc1-c1nnc2c(Cc3ccccc3)nc3ccccc3n12` the GI50 (HOP-92) was 3.91 µM, the GI50 (NCI-H460) was 3.45 µM and the GI50 (HCT-116 [33]) was 3.49 µM. The GI50 (U-251) was 1.96 µM, the GI50 (LOX IMVI) was 5.18 µM and the GI50 (A498) was 1.8 µM.
For `Fc1ccc(-n2c(-c3cccc(Cl)c3)n[nH]c2=S)cc1`, the selectivity ratio [8] was 3.9 and the TD50 (Mus musculus [34]) was 137 mg/kg.
`CC1=NC2NC(CC(F)(F)F)=NN2C(Nc2ccc(C(F)(F)F)nc2)=C1` (stereo not drawn) gave an IC50 [35] of 0.053 µM and an IC50 [36] of 0.094 µM.
With `Cc1nc(C)c(C(=O)Nc2ccc(F)c(-c3nc4ncc(C(C)(C)C)cn4n3)c2)o1` the EC50 (Trypanosoma brucei) was 0.03 µM.
`O=c1nc2c3c(ncn2[nH]1)Oc1c(c(=O)oc2ccccc12)C3c1ccc(F)cc1` (stereo not drawn) showed an IC50 (MCF7 [37]) of 7.9 µg/mL (≈ 19.6 µM) and an inhibition [38] of 94%.
